Data as given in publication PMC4351869 (Journal of neuro-oncology, 2011).

Columns and labels:
[1] = Treatment-related toxicity in the phase II trial; format: in vivo, patients
[2] = Tumor tissue concentrations of cilengitide at resection, HPLC-MS/MS; format: in vivo, patients; conditions: human, iv
[3] = tested on: recurrent glioblastoma; assay: Phase II trial NABTC 03-02, progression free survival; format: in vivo, patients; conditions: 2000 mg i.v. twice weekly after resection
[4] = clinical; conditions: human, in vivo, iv

## CC(C)[C@H]1C(=O)N[C@@H](CCCNC(=N)N)C(=O)NCC(=O)N[C@@H](CC(=O)O)C(=O)N[C@H](Cc2ccccc2)C(=O)N1C [Cilengitide]
[1]; 30 patients, 500 or 2000 mg before surgery, 2000 mg i.v. twice weekly after
  tolerability: very well tolerated
[1]; in vivo
  dose reductions for toxicity: no dose reductions for toxicity
  treatment related deaths: no treatment related deaths
[1]; mainly lymphopenia, likely related to prior cytotoxic chemotherapy
  number of grade 3–4 toxicities: 9
[2]; 500 mg
  tissue level at time at 24 h: 919 ng/g
[2]; 2000 mg
  tissue level at time at 24 h: 1410 ng/g
[3]; 26 patients evaluable for efficacy
  6-month PFS rate: 12%
[3]; Kaplan-Meier, 95% confidence interval 4–16 weeks
  median PFS: 8 weeks
[4]; 500 mg
  level at 24 h: 333 ng/mL
[4]; 2000 mg
  level at 24 h: 386 ng/mL
